The numbers were not newly measured in patent US20180353175A1, “Surgical Fastener with Broad Spectrum MMP Inhibitors” (Ethicon LLC, priority 2017, published 2018), which cites them from elsewhere.

Like-named read-outs stand apart in the source and are kept apart here. Square brackets hold non-standard residues; d marks the D form. Peptide text beside a SMILES is read from it. * marks the point of attachment. 4Abz = Nc1ccc(C(=O)O)cc1; NHOH = ON* A value given as a limit tells only on which side of the number the result lay.

For data set [1], the target named is MMP9 (Homo sapiens, UniProt P14780). As to conditions: for IC50: read-out: IC50 MMP9.
The target of data set [2] is T1, MMP1 (Homo sapiens, UniProt P03956).
T1 sequence (P03956 100-469): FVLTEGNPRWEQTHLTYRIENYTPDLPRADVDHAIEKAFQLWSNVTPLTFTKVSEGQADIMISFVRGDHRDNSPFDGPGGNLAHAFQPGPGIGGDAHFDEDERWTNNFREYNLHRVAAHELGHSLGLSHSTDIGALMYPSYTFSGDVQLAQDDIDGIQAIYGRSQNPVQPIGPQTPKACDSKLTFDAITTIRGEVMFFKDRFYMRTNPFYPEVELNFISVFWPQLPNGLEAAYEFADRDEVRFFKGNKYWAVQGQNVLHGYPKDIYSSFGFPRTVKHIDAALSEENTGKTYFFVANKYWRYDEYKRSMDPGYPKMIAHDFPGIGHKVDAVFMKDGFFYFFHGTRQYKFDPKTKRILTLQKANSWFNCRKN

Data set [3] deals with MMP3 (Homo sapiens, UniProt P08254).
The target in data set [4] is T2, MMP2 (Homo sapiens, UniProt P08253).
T2 sequence (P08253 110-660): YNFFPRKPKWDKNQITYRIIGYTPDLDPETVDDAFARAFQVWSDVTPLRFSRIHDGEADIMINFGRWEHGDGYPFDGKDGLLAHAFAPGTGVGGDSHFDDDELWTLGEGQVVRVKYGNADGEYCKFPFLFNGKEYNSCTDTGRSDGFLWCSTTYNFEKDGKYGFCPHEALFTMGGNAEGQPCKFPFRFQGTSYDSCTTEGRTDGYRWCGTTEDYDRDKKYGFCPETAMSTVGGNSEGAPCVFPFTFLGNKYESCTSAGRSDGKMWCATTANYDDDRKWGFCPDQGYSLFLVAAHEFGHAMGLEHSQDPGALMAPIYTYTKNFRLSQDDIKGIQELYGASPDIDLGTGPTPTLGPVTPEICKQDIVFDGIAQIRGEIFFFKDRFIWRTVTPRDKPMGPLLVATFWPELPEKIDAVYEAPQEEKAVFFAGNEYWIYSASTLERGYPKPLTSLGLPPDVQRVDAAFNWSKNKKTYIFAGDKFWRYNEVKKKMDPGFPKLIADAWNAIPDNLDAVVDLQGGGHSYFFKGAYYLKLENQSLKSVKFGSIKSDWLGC
The note with it: for IC50: read-out: IC50 MMP2.

In data set [5] the target is T3, MMP7 (Homo sapiens, UniProt P09237).
T3 sequence (P09237 95-267): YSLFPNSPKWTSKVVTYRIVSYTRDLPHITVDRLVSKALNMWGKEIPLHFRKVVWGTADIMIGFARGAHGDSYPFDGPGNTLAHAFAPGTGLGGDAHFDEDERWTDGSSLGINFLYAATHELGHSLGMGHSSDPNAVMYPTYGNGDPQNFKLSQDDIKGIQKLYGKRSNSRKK
As to conditions: for IC50: read-out: IC50 MMP7.

Data set [6] has as its target MMP13 (Homo sapiens, UniProt P45452).
In data set [7] the target is MMP8 (Homo sapiens, UniProt P22894).
Data set [8] has as its target MMP12 (Homo sapiens, UniProt P39900).
The target of data set [9] is MMP14 (Homo sapiens, UniProt P50281).
Data set [10] has as its system MMPs.
Data set [11] concerns the target TACE (TNF-α-converting enzyme) (Homo sapiens, UniProt P78536).
[12] abbreviates: read-out: IC50 MMP8 (converted).

Chain of MMP3 (P08254 100-477, species assumed): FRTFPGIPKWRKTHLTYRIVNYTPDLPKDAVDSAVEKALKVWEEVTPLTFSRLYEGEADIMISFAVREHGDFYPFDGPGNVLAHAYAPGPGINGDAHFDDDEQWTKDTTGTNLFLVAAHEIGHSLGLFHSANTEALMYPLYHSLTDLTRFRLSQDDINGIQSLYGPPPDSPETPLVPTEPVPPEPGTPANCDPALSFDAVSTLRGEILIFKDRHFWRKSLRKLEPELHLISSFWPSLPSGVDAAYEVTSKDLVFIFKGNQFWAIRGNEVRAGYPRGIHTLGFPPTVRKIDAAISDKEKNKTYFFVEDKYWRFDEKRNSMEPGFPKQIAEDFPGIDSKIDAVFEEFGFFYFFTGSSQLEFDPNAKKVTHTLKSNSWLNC
Chain of MMP8 (P22894 101-467, species assumed): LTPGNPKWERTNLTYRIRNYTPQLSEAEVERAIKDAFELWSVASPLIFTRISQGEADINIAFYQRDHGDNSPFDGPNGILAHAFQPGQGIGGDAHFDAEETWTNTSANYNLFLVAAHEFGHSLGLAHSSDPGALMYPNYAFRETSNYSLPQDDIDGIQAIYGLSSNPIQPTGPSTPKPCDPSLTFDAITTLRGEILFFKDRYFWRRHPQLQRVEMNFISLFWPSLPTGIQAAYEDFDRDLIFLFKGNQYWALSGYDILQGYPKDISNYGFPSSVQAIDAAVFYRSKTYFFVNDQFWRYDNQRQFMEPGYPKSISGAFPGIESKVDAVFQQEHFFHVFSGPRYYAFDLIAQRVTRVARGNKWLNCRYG
Chain of MMP9 (P14780 94-707, species assumed): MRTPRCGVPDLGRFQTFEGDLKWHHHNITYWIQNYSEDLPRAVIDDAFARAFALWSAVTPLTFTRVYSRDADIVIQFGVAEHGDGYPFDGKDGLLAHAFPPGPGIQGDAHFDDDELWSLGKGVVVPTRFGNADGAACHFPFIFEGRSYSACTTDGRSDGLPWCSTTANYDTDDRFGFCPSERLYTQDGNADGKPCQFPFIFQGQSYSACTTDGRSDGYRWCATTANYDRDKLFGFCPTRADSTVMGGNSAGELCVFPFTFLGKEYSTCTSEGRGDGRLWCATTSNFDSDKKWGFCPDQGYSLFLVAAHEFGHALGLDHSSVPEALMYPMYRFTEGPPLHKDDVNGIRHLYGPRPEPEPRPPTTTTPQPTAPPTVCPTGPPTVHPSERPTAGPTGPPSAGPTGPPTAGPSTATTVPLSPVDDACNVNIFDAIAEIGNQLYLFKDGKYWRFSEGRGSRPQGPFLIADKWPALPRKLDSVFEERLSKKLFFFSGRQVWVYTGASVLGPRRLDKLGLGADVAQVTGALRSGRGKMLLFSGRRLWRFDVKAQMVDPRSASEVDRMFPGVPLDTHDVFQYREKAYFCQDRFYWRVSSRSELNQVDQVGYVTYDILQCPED
Chain of MMP12 (P39900 106-470, species assumed): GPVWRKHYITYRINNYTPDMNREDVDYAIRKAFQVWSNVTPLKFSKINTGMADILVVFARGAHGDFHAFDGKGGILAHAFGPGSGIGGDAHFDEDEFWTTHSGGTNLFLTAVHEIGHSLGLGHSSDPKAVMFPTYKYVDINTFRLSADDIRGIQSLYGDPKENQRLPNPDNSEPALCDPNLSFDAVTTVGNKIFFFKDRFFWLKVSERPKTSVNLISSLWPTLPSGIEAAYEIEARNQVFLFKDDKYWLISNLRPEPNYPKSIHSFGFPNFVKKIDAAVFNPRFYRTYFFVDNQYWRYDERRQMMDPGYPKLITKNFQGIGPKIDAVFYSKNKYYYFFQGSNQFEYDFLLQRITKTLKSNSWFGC
Chain of TACE (TNF-α-converting enzyme) (P78536 215-824, species assumed): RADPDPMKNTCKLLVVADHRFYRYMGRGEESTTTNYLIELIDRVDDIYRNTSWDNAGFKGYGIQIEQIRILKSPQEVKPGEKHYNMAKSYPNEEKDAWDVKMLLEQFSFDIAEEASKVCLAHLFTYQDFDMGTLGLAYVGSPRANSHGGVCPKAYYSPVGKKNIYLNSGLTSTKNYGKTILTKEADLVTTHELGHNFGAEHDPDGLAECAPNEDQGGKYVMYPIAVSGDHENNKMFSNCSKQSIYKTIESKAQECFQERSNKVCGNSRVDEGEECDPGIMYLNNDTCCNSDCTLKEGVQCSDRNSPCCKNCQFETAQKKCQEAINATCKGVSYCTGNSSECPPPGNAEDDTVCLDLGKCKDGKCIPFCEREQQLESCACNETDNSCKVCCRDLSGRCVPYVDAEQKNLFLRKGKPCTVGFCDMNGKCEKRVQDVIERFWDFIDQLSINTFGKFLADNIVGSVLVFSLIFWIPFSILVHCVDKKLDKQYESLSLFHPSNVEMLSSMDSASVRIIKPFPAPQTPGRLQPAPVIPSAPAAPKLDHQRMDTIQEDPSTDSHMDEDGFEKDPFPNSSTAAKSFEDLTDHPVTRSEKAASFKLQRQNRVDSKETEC

As to “7-dimethylamino-6-dimethyl-6-deoxytetracycline [Minocycline]”, the IC50 in [1] is 180000 nM; in data set [3], 290000 nM; in [5], 125000 nM. The “inhibition of MMP1 (in words)” value in data set [2] is recorded as “effective for the inhibition”. For the same molecule, the “inhibition of MMP2 (in words)” value in data set [4] is “effective for the inhibition”.

On to `C[C@H]1c2cccc(O)c2C(=O)C2=C(O)[C@]3(O)C(=O)C(C(N)=O)=C(O)[C@@H](N(C)C)[C@@H]3[C@@H](O)[C@@H]21` [Doxycycline], for which the IC50 in data set [2] was above 400000 nM; in [3], 32000 nM; in [6], 2000 to 50000 nM; in data set [4], 56000 nM; in [7] (setting [12]), 26000 to 50000 nM; in data set [5], 28000 nM.

With `NC(=O)C1=C(O)CC2CC3Cc4cccc(O)c4C(=O)C3=C(O)C2(O)C1=O` (stereo not drawn) [COL-3], the IC50 is 91600 nM in data set [2], 808 nM in data set [6] and 129000 nM in data set [7] (setting [12]).

On to `CCN(CC)Cc1cc(C)c(N(Cc2ccccc2)S(=O)(=O)c2ccc(OC)cc2)c(C(=O)NO)c1` [MMP9 inhibitor I], for which, in data set [2], the IC50 was 1.05 nM.

As for `O=C1NC(=O)C(c2ccc(-c3ccccc3)cc2)(N2CCN(c3ccc([N+](=O)[O-])cc3)CC2)C(=O)N1` [Ro 28-2653], the IC50 in [1] was 12 to 23 nM; in data set [4], 7 to 246 nM; in [7] (read-out: IC50 MMP8) it was 15 nM.

As to `CNC(=O)[C@H](Cc1ccccc1)NC(=O)[C@H](CC(C)C)[C@H](CSc1cccs1)C(=O)NO` [Batimastat], the IC50 in [1] is 1 nM; in [5], 6 nM.

Consider `CC(C)C[C@@H](NC(=O)[C@@H]1CCCN1C(=O)CNC(=O)c1ccc(N)cc1)C(=O)N[C@H](C)C(=O)NO` [FN-439, p-aminobenzoyl-Gly-Pro-D-Leu-D-Ala-NHOH] (H-[4Abz]GP[dL][dA]-{NHOH}), for which the IC50 in [1] was 30000 nM; in [2], 1000 nM; in data set [3], 150000 nM; in data set [7] (setting [12]) it was 1000 nM.

On to `CCOCOCC(CC(C)C(=O)NO)NC(=O)c1ccc(Oc2ccccc2)cc1` (stereo not drawn) [ONO-4817], for which the values for the IC50 in [1] and in data set [2] were 2.1 nM and 1.6 nM, respectively. Besides, the Ki in [3] was 42 nM; in data set [6], 1.1 nM; in data set [4] it was 0.73 nM; in [7], 1.1 nM; in data set [5], 2.5 nM; in [8], 0.45 nM.

On to `CNC(=O)[C@@H](NC(=O)[C@H](CC(C)C)[C@H](O)C(=O)NO)C(C)(C)C` [Marimastat], for which the IC50 in [9] was 1.8 nM.

Take `CC1(C)SCCN(S(=O)(=O)c2ccc(Oc3ccncc3)cc2)[C@H]1C(=O)NO` [Prinomastat]: in [1], the “inhibition of MMP9 (in words)” value is reported as “specific selectivity”. In addition, the “inhibition of MMP3 (in words)” value in [3] is reported as “specific selectivity”. Moreover, the “inhibition of MMP14 (in words)” value in [9] was “specific selectivity”.

As to “TIMP-1: endogenous tissue inhibitor of metalloproteinases; extensively glycosylated protein with a molecular mass of 28.5 kDa”, the “inhibition of MMPs in general (in words)” value in [10] is “inhibit most MMPs (except MMP-2 and -14)”. Besides, in data set [7], the “inhibition of MMP8 (in words)” value is listed as “preferentially inhibits”.

On to `CN1C(=O)N(C[C@H](C(=O)NO)[C@@H](CC2CCCC2)C(=O)N2CCCCC2)C(=O)C1(C)C` [Cipemastat], for which, in data set [1], the “inhibition of MMP9 (in words)” value was “can inhibit”. Besides, the “inhibition of MMP1 (in words)” value in [2] is reported as “can inhibit”. Besides, the “inhibition of MMP3 (in words)” value in data set [3] is “can inhibit”.

As for `COc1ccc(S(=O)(=O)N(Cc2cccnc2)[C@@H](C(=O)NO)C(C)C)cc1.Cl` [MMI-270], the “inhibition of MMP9 (in words)” value in data set [1] is reported as “can inhibit”. Also, the “inhibition of MMP2 (in words)” value in data set [4] was “can inhibit”. The “inhibition of MMP8 (in words)” value in data set [7] is recorded as “can inhibit”.

`O=C(NO)C1(S(=O)(=O)c2ccc(Oc3ccc(Cl)cc3)cc2)CCN(Cc2ccccc2)CC1` [239796-97-5]: the “inhibition of MMP1 (in words)” value in data set [2] is given as “suppress”.

Regarding `CC1(C)NC(=O)N(C[C@@H](COc2ccc(-c3ccc(OC(F)(F)F)cc3)cc2)N(O)C=O)C1=O` [ABT-770], the “inhibition of MMP9 (in words)” value in data set [1] is “inhibits”. The “inhibition of MMP2 (in words)” value in [4] is “inhibits”.

As for `C=CCN(C(=O)CCC(=O)N(O)CC(C)C)C(Cc1ccccc1)C(=O)NC` (stereo not drawn) [BB-1101], the half-inhibitory concentration (IC50) in data set [1] was 3 nM; in [2], 8 nM; in data set [3], 30 nM; in data set [6], 7 nM; in [4], 4 nM; in data set [9], 10 nM. Also, the IC50 in data set [7] (setting [12]) was 3 nM; in data set [5], 60 nM; in data set [8], 5 nM.

`O=C(NO)C1(CS(=O)(=O)c2ccc(Oc3ccc(Cl)cc3)cc2)CCOCC1` [RS 130830]: the “inhibition of MMP1 (in words)” value in data set [2] is on record as “suppress”.

B1: TIMP-4: endogenous tissue inhibitor of metalloproteinases, secreted predominantly in heart and brain tissue (protein, UniProt Q99727 30-224, looked up)
Metalloproteinase inhibitor 4: CSCAPAHPQQHICHSALVIRAKISSEKVVPASADPADTEKMLRYEIKQIKMFKGFEKVKDVQYIYTPFDSSLCGVKLEANSQKQYLLTGQVLSDGKVFIHLCNYIEPWEDLSLVQRESLNHHYHLNCGCQITTCYTVPCTISAPNECLWTDWLLERKLYGYQAQHYVCMKHVDGTCSWYRGHLPLRKEFVDIVQP
With B1, in data set [10], the “inhibition of MMPs in general (in words)” value was “inhibits all known MMPs”. Besides, in [4], the “inhibition of MMP2 (in words)” value was “preferentially inhibits”. Moreover, the “inhibition of MMP7 (in words)” value in [5] is listed as “preferentially inhibits”.

B2: TIMP-3: endogenous tissue inhibitor of metalloproteinases, typically bound to the ECM (protein, UniProt P35625 24-211, looked up)
Metalloproteinase inhibitor 3: CTCSPSHPQDAFCNSDIVIRAKVVGKKLVKEGPFGTLVYTIKQMKMYRGFTKMPHVQYIHTEASESLCGLKLEVNKYQYLLTGRVYDGKMYTGLCNFVERWDQLTLSQRKGLNYRYHLGCNCKIKSCYYLPCFVTSKNECLWTDMLSNFGYPGYQSKHYACIRQKGGYCSWYRGWAPPDKSIINATDP
B2: the “inhibition of MMP9 (in words)” value in data set [1] was “inhibits the activity”. For the same molecule, the “inhibition of MMP1 (in words)” value in data set [2] is on record as “inhibits the activity”. Further, the “inhibition of MMP3 (in words)” value in data set [3] is reported as “inhibits the activity”. Besides, in [6], the “inhibition of MMP13 (in words)” value is listed as “inhibits the activity”. In data set [4], the “inhibition of MMP2 (in words)” value was “inhibits the activity”. Also, in [11], the “inhibition of TACE (in words)” value is “normally inhibits”.

What is called IC50 is the concentration that inhibits the measured activity by half. The term Ki denotes the dissociation constant of the complex between target and ligand, obtained from inhibition or displacement.
